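Step 1: Grow cells in 96-well plates. Step 2: Expose to compound for 48 hours at 5 concentrations. Step 3: Interpolate endpoints linearly; if unreached, use highest concentration. TGI is the concentration that stops growth completely.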
How the values were obtained:
Assay in all cases: NCI anticancer screen, dose series, 48 h
[1] = system: COLO 205 colon
[2] = system: SK-MEL-28 melanoma
[3] = system: DU-145 prostate
[4] = system: HOP-92 NSCLC
[5] = system: MCF7 breast
[6] = system: HOP-62 NSCLC
[7] = system: HCC-2998 colon
[8] = system: SW-620 colon
[9] = system: MALME-3M melanoma
[10] = system: MDA-N
[11] = system: SNB-19 CNS
[12] = system: NCI/ADR-RES ovarian
[13] = system: TK-10 renal
[14] = system: HCT-116 colon
[15] = system: SF-268 CNS
[16] = system: SN12C renal
[17] = system: CAKI-1 renal
[18] = system: NCI-H460 lung
[19] = system: UACC-62 melanoma
[20] = system: OVCAR-3 ovarian
[21] = system: MDA-MB-435
[22] = system: LOX IMVI melanoma
[23] = system: NCI-H522 lung
[24] = system: MDA-MB-231 breast
[25] = system: MOLT-4 leukemia
[26] = system: OVCAR-4 ovarian
[27] = system: OVCAR-5 ovarian
[28] = system: OVCAR-8 ovarian
[29] = system: SF-295 CNS
[30] = system: SK-MEL-2 melanoma
[31] = system: A498 renal
[32] = system: UACC-257 melanoma
[33] = system: T-47D breast
[34] = system: HT29 colon
[35] = system: BT-549 breast
[36] = system: HS 578T breast
[37] = system: SNB-75 CNS
[38] = system: HCT-15 colon
[39] = system: 786-0 renal
[40] = system: CCRF-CEM leukemia
[41] = system: SK-MEL-5 melanoma
[42] = system: PC-3 prostate
[43] = system: HL-60(TB) leukemia
[44] = system: SR leukemia
[45] = system: SK-OV-3 ovarian
[46] = system: A549 NSCLC
[47] = system: ACHN renal
[48] = system: KM12 colon
[49] = system: IGROV1 ovarian
[50] = system: NCI-H23 lung
[51] = system: UO-31 renal
[52] = system: M14 melanoma
[53] = system: EKVX NSCLC
[54] = system: SF-539 CNS
[55] = system: RXF 393 renal
[56] = system: K-562 leukemia
[57] = system: NCI-H226 lung
[58] = system: U251 CNS
[59] = system: RPMI-8226 leukemia

## COc1cc(CC2c3cc(OC)c(OC)cc3CCN2C)c(Oc2cc3c(cc2OC)-c2c(O)c(OC)cc4c2C(C3)N(C)CC4)cc1OC (configuration not stated)
[1]
  TGI: 42.5 µM
[2]
  TGI: 63.2 µM
[3]
  TGI: > 100 µM
[4]
  TGI: 32.6 µM
[5]
  TGI: 29.1 µM
[6]
  TGI: > 100 µM
[7]
  TGI: 31 µM
[8]
  TGI: > 100 µM
[9]
  TGI: 53.8 µM
[10]
  TGI: 36.8 µM
[11]
  TGI: 57.4 µM
[12]
  TGI: 43.9 µM
[13]
  TGI: 51.3 µM
[14]
  TGI: > 100 µM
[15]
  TGI: 46 µM
[16]
  TGI: 42 µM
[17]
  TGI: 68.4 µM
[18]
  TGI: 44.8 µM
[19]
  TGI: 40.1 µM
[20]
  TGI: > 100 µM
[21]
  TGI: 94.3 µM
[22]
  TGI: 67.9 µM
[23]
  TGI: 39.3 µM
[24]
  TGI: 37.7 µM
[25]
  TGI: > 100 µM
[26]
  TGI: 90.7 µM
[27]
  TGI: > 100 µM
[28]
  TGI: 44.5 µM
[29]
  TGI: 35.4 µM
[30]
  TGI: 58.5 µM
[31]
  TGI: 43 µM
[32]
  TGI: 37.4 µM
[33]
  TGI: 55 µM
[34]
  TGI: 36.6 µM
[35]
  TGI: 32.4 µM
[36]
  TGI: 45.2 µM
[37]
  TGI: 31.3 µM
[38]
  TGI: 33.1 µM
[39]
  TGI: 84.4 µM
[40]
  TGI: 42.8 µM
[41]
  TGI: 32.8 µM
[42]
  TGI: 94.6 µM
[43]
  TGI: 17.9 µM
[44]
  TGI: 17.5 µM
[45]
  TGI: > 100 µM
[46]
  TGI: > 100 µM
[47]
  TGI: 49.8 µM
[48]
  TGI: 31.3 µM
[49]
  TGI: 45.1 µM
[50]
  TGI: 42.8 µM
[51]
  TGI: 36.1 µM
[52]
  TGI: 22.8 µM
[53]
  TGI: 53.1 µM
[54]
  TGI: 30.3 µM
[55]
  TGI: 9.35 µM
[56]
  TGI: > 100 µM
[57]
  TGI: 66.2 µM
[58]
  TGI: > 100 µM

## Cc1cc(-c2nc3ccccc3s2)ccc1NC(=O)[C@H](C)N
[1]
  TGI: 26.7 µM
[2]
  TGI: 29.3 µM
[3]
  TGI: 29 µM
[4]
  TGI: 35.5 µM
[5]
  TGI: 20.4 µM
[6]
  TGI: 28.3 µM
[7]
  TGI: 23.9 µM
[8]
  TGI: 29 µM
[9]
  TGI: 51.1 µM
[10]
  TGI: 24.1 µM
[11]
  TGI: 28.7 µM
[12]
  TGI: 38.5 µM
[14]
  TGI: 23.4 µM
[15]
  TGI: 52.5 µM
[16]
  TGI: 27.9 µM
[17]
  TGI: 24 µM
[18]
  TGI: 25.6 µM
[19]
  TGI: 29.1 µM
[20]
  TGI: 24.7 µM
[21]
  TGI: 19.9 µM
[22]
  TGI: > 100 µM
[23]
  TGI: 75.8 µM
[24]
  TGI: 32.6 µM
[25]
  TGI: 37.8 µM
[26]
  TGI: 26.2 µM
[27]
  TGI: 19.1 µM
[28]
  TGI: 37.4 µM
[29]
  TGI: 29.3 µM
[30]
  TGI: 34.3 µM
[31]
  TGI: 28.6 µM
[32]
  TGI: 33.2 µM
[33]
  TGI: 21.4 µM
[34]
  TGI: 28.7 µM
[35]
  TGI: 31.2 µM
[36]
  TGI: 74.4 µM
[37]
  TGI: 26.1 µM
[38]
  TGI: 37.1 µM
[39]
  TGI: 23.7 µM
[40]
  TGI: 24.1 µM
[41]
  TGI: 26.1 µM
[42]
  TGI: 26.7 µM
[44]
  TGI: 13.4 µM
[45]
  TGI: 28.5 µM
[46]
  TGI: 27.3 µM
[47]
  TGI: 27.5 µM
[48]
  TGI: 31.1 µM
[49]
  TGI: 23.4 µM
[50]
  TGI: 33.9 µM
[51]
  TGI: 19.1 µM
[52]
  TGI: 19.2 µM
[55]
  TGI: 25.4 µM
[56]
  TGI: 23.2 µM
[57]
  TGI: 13.4 µM
[58]
  TGI: 33.9 µM

## O=C(OCc1ccccc1)C1(N2CN(C3(C(=O)OCc4ccccc4)CCCC3)CN(C3(C(=O)OCc4ccccc4)CCCC3)C2)CCCC1
[1]
  TGI: > 10 µM
[2]
  TGI: > 10 µM
[3]
  TGI: > 10 µM
[4]
  TGI: > 10 µM
[5]
  TGI: > 10 µM
[6]
  TGI: > 10 µM
[7]
  TGI: > 10 µM
[8]
  TGI: > 10 µM
[9]
  TGI: > 10 µM
[10]
  TGI: > 10 µM
[11]
  TGI: > 10 µM
[12]
  TGI: > 10 µM
[13]
  TGI: > 10 µM
[14]
  TGI: > 10 µM
[15]
  TGI: > 10 µM
[16]
  TGI: > 10 µM
[17]
  TGI: > 10 µM
[18]
  TGI: > 10 µM
[19]
  TGI: > 10 µM
[20]
  TGI: > 10 µM
[21]
  TGI: > 10 µM
[22]
  TGI: > 10 µM
[23]
  TGI: > 10 µM
[24]
  TGI: > 10 µM
[25]
  TGI: > 10 µM
[26]
  TGI: > 10 µM
[27]
  TGI: > 10 µM
[28]
  TGI: > 10 µM
[29]
  TGI: > 10 µM
[30]
  TGI: > 10 µM
[32]
  TGI: > 10 µM
[33]
  TGI: > 10 µM
[34]
  TGI: > 10 µM
[35]
  TGI: > 10 µM
[36]
  TGI: > 10 µM
[37]
  TGI: > 10 µM
[38]
  TGI: > 10 µM
[39]
  TGI: > 10 µM
[40]
  TGI: > 10 µM
[41]
  TGI: > 10 µM
[42]
  TGI: > 10 µM
[43]
  TGI: > 10 µM
[44]
  TGI: > 10 µM
[45]
  TGI: > 10 µM
[46]
  TGI: > 10 µM
[47]
  TGI: > 10 µM
[48]
  TGI: > 10 µM
[49]
  TGI: > 10 µM
[50]
  TGI: > 10 µM
[51]
  TGI: > 10 µM
[52]
  TGI: > 10 µM
[53]
  TGI: > 10 µM
[54]
  TGI: > 10 µM
[55]
  TGI: > 10 µM
[56]
  TGI: > 10 µM
[59]
  TGI: > 10 µM
[57]
  TGI: > 10 µM
[58]
  TGI: > 10 µM

## Cc1cn(CC2=NCC(C)(C)N2)c(=O)[nH]c1=O
[1]
  TGI: > 100 µM
[2]
  TGI: > 100 µM
[3]
  TGI: > 100 µM
[4]
  TGI: > 100 µM
[5]
  TGI: > 100 µM
[6]
  TGI: > 100 µM
[7]
  TGI: > 100 µM
[8]
  TGI: > 100 µM
[9]
  TGI: > 100 µM
[10]
  TGI: > 100 µM
[11]
  TGI: > 100 µM
[12]
  TGI: > 100 µM
[13]
  TGI: > 100 µM
[14]
  TGI: > 100 µM
[15]
  TGI: > 100 µM
[16]
  TGI: > 100 µM
[18]
  TGI: > 100 µM
[19]
  TGI: > 100 µM
[22]
  TGI: > 100 µM
[23]
  TGI: > 100 µM
[24]
  TGI: > 100 µM
[25]
  TGI: > 100 µM
[27]
  TGI: > 100 µM
[28]
  TGI: > 100 µM
[29]
  TGI: > 100 µM
[30]
  TGI: > 100 µM
[31]
  TGI: > 100 µM
[32]
  TGI: > 100 µM
[33]
  TGI: > 100 µM
[34]
  TGI: > 100 µM
[35]
  TGI: > 100 µM
[36]
  TGI: > 100 µM
[37]
  TGI: > 100 µM
[38]
  TGI: > 100 µM
[39]
  TGI: > 100 µM
[40]
  TGI: > 100 µM
[41]
  TGI: > 100 µM
[42]
  TGI: > 100 µM
[44]
  TGI: > 100 µM
[45]
  TGI: > 100 µM
[46]
  TGI: > 100 µM
[47]
  TGI: > 100 µM
[49]
  TGI: > 100 µM
[50]
  TGI: > 100 µM
[51]
  TGI: > 100 µM
[52]
  TGI: > 100 µM
[53]
  TGI: > 100 µM
[55]
  TGI: > 100 µM
[56]
  TGI: > 100 µM
[59]
  TGI: > 100 µM
[57]
  TGI: > 100 µM
[58]
  TGI: > 100 µM

Source: PubChem BioAssay (NCI)
